Assay results: patent US20250231189A1, “MEASURING FREQUENCY OF PATHOGEN-SPECIFIC T CELLS IN […] AS E[…] TCR-INDUCED CA(2+) SIGNALING” (Thomas Jefferson University, priority 2017, published 2025)
Entries after “also recorded” stand apart in the source; their conditions may differ.

Test system: cloned T cells (68A62)
Test: Ca2+ mobilization pattern in individual T cells of a T-cell monolayer (Fluo-4 fluorescence microscopy)
Type: cell-based, human
Conditions: for fraction of T cells with slower Ca2+ mobilization (pattern of inefficient T cells) / fraction of cells with rapid/strong and sustained pattern of Ca2+ flux: CTL clone 68A62, strong agonist peptide 10^-4 M IV9, FIG. 4
Excerpt: HIV- and Flu-specific human CD8+ T cell clones, termed 68A62 and CER43, were kindly provide by Bruce Walker and Antonio Lanzavecchia, correspondingly. These T cells recognize […] (IV9) and […] (GL9) peptides, respectively, both presented by HLA-A2 MHC class I. 115iX is a CD8+ T cell line developed from CTL D3 as a result of spontaneous mutation in its TCR β chain resulting in loss of specificity for its natural ligand (Anikeeva and Sykulev, unpublished). These were used as T cells with irrelevant specificity. After stimulation with a mixture of allogeneic PBMC and IL2 the cells are typically used in resting stage, 12-17 days after the stimulation as previously described.
10^6 cells in 1 ml of PBS were loaded with Fluo-4 (Life Technologies) at 2-4 μM for 30 min at 37° C. in the presence of 0.02% pluoronic acid F-127 and 4 mM Probenecid. The cells were washed free of unreacted reagents and incubated at 37° C. for additional 30 min. The cells were then re-suspended in the assay buffer (Dulbecco's PBS containing 1 mM CaCl2, 2 mM MgCl2, 5 mM glucose, and 0.025% BSA) and used for Ca2+ flux analysis.
Glass bottom of 96 well MatTec plates was covered with poly-L-Lysine (Sigma, mol wt>300,000) at 0.1 mg/ml for 1 hr at room temperature. After washing with DPBS and add water, TS2/4 non-blocking mAb specific for LFA-1 were added to the plate at concentration 10 μg/ml overnight & 4° C. The wells were washed with DPBS, and 3×10^5 Fluo-4-labeled T cells in 100 μl of the assay buffer were added to each well. The plates were centrifuged for 200 g for one minute and were incubated for 30 min at room temperature prior to the imaging. Suspended cells were removed by gentle washing with assay buffer. The quality of T cell monolayer was assessed using bright field microscopy.
To identify responding T cells we imaged T-cell monolayers before (background measurement) and after (response) addition of the stimulatory signal such as agonist peptide. The images of T-cell monolayers were taken at various exposure times using 10× or 20× objectives. Instead of averaging the entire set of stimulatory signal against an agonist peptide, we identified sets of cells, having different response rates and then averaged these, now separated sets of cells. This is in direct contrast to the general averaging strategy provided in PCT/US2016/039313. In some experiments Ca2+ response was also initiated by ionomycin at 10 μg/ml to optimize exposure time (data not shown). The average intensity of images prior and after the T-cell stimulation at various time points and the numbers of individual responding cells per imaging field were determined by MetaMorph software.
Glass bottom of 96-well plates was covered with poly-L-Lysine to capture TS2/4 antibody recognizing LFA-1 adhesion receptor without blocking LFA-1 functional activity. Cloned CD8 T cells with known specificity or polyclonal CD8 T cells were labeled with Ca2+ fluorophore Fluor-4 and added to the wells. The quality of the T-cell monolayers was evident from analysis of bright field images of the immobilized T cells on the glass bottom of the plate. This method allows T cells to form a continuous monolayer allowing the T cells to contact each other, which is necessary for presentation and recognition of pMHC on one T cell by another T cell.
The immobilized cells, after they are provided with stimulation of a peptide, can be imaged. Accordingly, we can take a first image, to identify the background image of each individual cell, before and after the stimulation. Accordingly, we can look at the calcium concentration of each individual cell across time. By looking at each cell, we can then determine and add them to one of three boxes for responding cells, and then a fourth type of cell that is either non-responsive or there is calcium flux that happens with or without stimulation-this typically results in a sharp peak of intensity that quickly diminishes.

[1] = listed as strong agonist ligand

ILKEPVHGV [IV9, peptide from HIV reverse transcriptase, presented by HLA-A2, recognized by CTL clone 68A62]
pattern of Ca2+ response of majority of T cells (CD8 CTL 68A62, 10^-4 M IV9 peptide, FIG. 4): rapid and sustaine | fraction of T cells with slower Ca2+ mobilization (pattern of inefficient T cells): 20% | fraction of cells with rapid/strong and sustained pattern of Ca2+ flux: about 90% | fraction of T cells with slower Ca2+ mobilization (pattern of inefficient T cells) [1]: less than 20% | fraction of cells with rapid/strong and sustained pattern of Ca2+ flux [1]: More than 80% | pattern of Ca2+ response of majority of T cells (CTL clone 68A62, suboptimal (much lower) concentration of the strong agonist peptide, FIG. 6): rapid and oscillating pattern of Ca2+ mobilization; also recorded: quick, but oscillating | pattern of Ca2+ response of majority of T cells (CTL clone 68A62, suboptimal (much lower) concentration of the strong agonist peptide, FIG. 6, listed as strong agonist pMHC ligand): slow oscillating kinetics of Ca2+ mobilization
